The text below walks through data of patent publication US10150772B2, “Crystalline forms of PARP inhibitors” (priority 2014, dated 2018).

Data set [1] is classed as physicochemical. The following applies: for Stability to the test conditions (in words): 28 day test period. The procedure:
Identity, Assay, and Purity by HPLC
Testing was performed on a calibrated and validated Agilent 1200 Rapid Resolution High Performance Liquid Chromatography (HPLC) system designated LC-0430-AD or LC-418-1D. The system comprises a binary SL pump, degasser, high performance autosampler SL with a fraction collector, thermostated column compartment with a 2 valve column switcher, and a DAD SL detector. All standard solutions and samples were prepared in Class A glass volumetric flasks and were placed in autosampler vials. Standard weighings were done using a calibrated Mettler analytical balance. The sample preparations were centrifuged using an Eppendorf microcentrifuge. The primary chromatography data was acquired and integrated using Empower 2 software. Microsoft Office Excel 2003 was used for the calculation of results.
Solid State Stability of Salts at 40° C. and 75% Humidity:
Samples of the form to be studied (15-20 mg) were weighed into standard 1.5 mL HPLC vials (32×11.6 mm) and stored uncapped for 0, 7, 14 and 28 days in a 40° C. and 75% RH stability chamber. Samples were removed on the indicated day and capped. Measurements of XRPD, DSC, TGA and HPLC Identity by Purity and Assay measurements were completed on each time point sample.

A short description of data set [2]: Estimation of water solubility. It is filed as physicochemical. The procedure: Estimation of Water Solubility: Ten mg portions of the salt forms to be studied were weighed into a standard 1.5 mL HPLC vial (32×11.6 mm). […] An estimation of solubility was based on the volume of water necessary to dissolve the known weight of sample.
The nature of data set [3]: Dynamic vapor sorption (DVS), water sorption. The class given is physicochemical. The following applies: for Total uptake (moisture): entire RH range. On the procedure: Dynamic Vapor Sorption (DVS):
DVS experiments have been carried out using the DVS-HT instrument (Surface Measurement Systems, London, UK). This instrument measures the uptake and loss of vapor gravimetrically using a recording ultra-microbalance with a mass resolution of ±0.1 μg. The vapor partial pressure (±1.0%) around the sample is controlled by mixing saturated and dry carrier gas streams using electronic mass flow controllers. The desired temperature is maintained at ±0.1° C. The samples (1-10 mg) were placed into the DVS-HT and DVS-1 instruments at the desired temperature.
The sample was loaded and unloaded at 40% RH and 25° C. (typical room conditions). A moisture sorption isotherm was performed as outlined below (2 scans giving 1 complete cycle). The software uses a least squares minimization procedure together with a model of the mass relaxation, to predict an asymptotic value. The measured mass equilibration value must be within 2% of that predicted by the software before proceeding to the next % RH value. The minimum equilibration time was set to 1 hour and the maximum to 4 hours.

[4] abbreviates: initial, before 40° C. and 75% RH stability testing.
The mark [5] stands for this setting: 40° C. and 75% RH, day 14, HPLC.
The mark [6] stands for this setting: 40° C. and 75% RH, day 28, HPLC.

“Also recorded” adds a separate entry of the source. Counter-ions that a name gives are not always drawn. Like-named read-outs stand apart in the source and are kept apart here.

For the molecule `COc1cccc2[nH]c3c4c(c5c(c3c12)C(=O)N(CN1CCN(C)CC1)C5=O)CCC4.O=C(O)C[C@H](O)C(=O)O` [L-malate (2 Eq.)], the “COMPOUND B After 40/75” value in data set [1] (after 40° C. and 75% RH stability testing) is listed as 1.2%. Further, in data set [1] (setting [4]), the “COMPOUND A Initial” value is given as 71.3% and the “COMPOUND B Initial” value is given as 0.2%. Besides, in data set [1] (initial, comparison of salts), the TGA amounted to 0.1%. Besides, the “Est. Water Solubility” value in data set [2] is on record as over 100 mg/mL. Also, the DVS entry in data set [3] (water sorption reversible or irreversible) is listed as “Irreversible”.

As to `COc1cccc2[nH]c3c4c(c5c(c3c12)C(=O)N(CN1CCN(C)CC1)C5=O)CCC4` [L-Pyroglutamate Salt, Form A1], the “Stability to the test conditions (in words)” value (from here on “Stability”) in data set [1] (40° C. and 75% RH) was “stable over a 28 day test period, except for a slow increase in Compound B content”. Also, in data set [3] (DVS, 25° C.), the “DVS sorption behaviour (in words)” value was “massive uptake in moisture” and the “Total uptake (moisture)” value was about 27%. The “Water absorption, first cycle” value in data set [3] (DVS, RH range of 40-75%) is reported as about 2%.

Consider `COc1cccc2[nH]c3c4c(c5c(c3c12)C(=O)N(CN1CCN(C)CC1)C5=O)CCC4` [Glycolate Salt Hydrate, Form A1], for which the “Stability” value in data set [1] (40° C. and 75% RH) is on record as “fairly stable to the test conditions; also recorded: generated the least amount of Compound B”. The “HPLC Purity” value in data set [1] (40° C. and 75% RH, day 0) is 99.8%; in data set [1] (40° C. and 75% RH, day 7) it was 99.6%; in data set [1] (40° C. and 75% RH, day 14), 99.7%; in data set [1] (40° C. and 75% RH, day 28), 99.5%. Further, the TGA in data set [1] (40° C. and 75% RH, day 0) was 2.1%; in data set [1] (40° C. and 75% RH, day 7) it was 2.3%; in data set [1] (40° C. and 75% RH, day 14) it was 2.6%; in data set [1] (40° C. and 75% RH, day 28), 3.5%. Also, the “COMPOUND A Assay” value is listed as 69.9% in data set [1] (40° C. and 75% RH, day 0, HPLC); 68.4% in data set [1] (40° C. and 75% RH, day 7, HPLC); 73.2% in data set [1] (setting [5]); 66.8% in data set [1] (setting [6]). Moreover, the “COMPOUND B Assay” value in data set [1] (40° C. and 75% RH, day 0, HPLC) is 0.1%; in data set [1] (40° C. and 75% RH, day 7, HPLC) it was 0.1%; in data set [1] (setting [5]), 0.2%; in data set [1] (setting [6]) it was 0.6%. In addition, the XRPD result was “No change” in data set [1] (40° C. and 75% RH, day 7); “No change” in data set [1] (40° C. and 75% RH, day 14); “No change” in data set [1] (40° C. and 75% RH, day 28). For the same molecule, in data set [3] (DVS, 25° C.), the “DVS sorption behaviour (in words)” value is listed as “surface adsorption with limited bulk absorption throughout the entire RH range”. In addition, the “Total uptake in moisture at 90% RH” value in data set [3] (DVS, 25° C., 90% RH) is reported as about 3.5%.

As for `COc1cccc2[nH]c3c4c(c5c(c3c12)C(=O)N(CN1CCN(C)CC1)C5=O)CCC4` [Hydrochloride Salt, Form A], the “Stability” value in data set [1] (40° C. and 75% RH) is “relatively constant XRPD pattern”. Moreover, the “Compound A Assay value, change (in words)” value in data set [1] (40° C. and 75% RH, after 28 days) was “decreasing to nearly half”. In data set [3] (DVS, 25° C.), the “DVS sorption behaviour (in words)” value is “surface adsorption with limited bulk absorption throughout the entire RH range” and the “Total uptake (moisture)” value is about 2.25%.
